From patent publication EP0115820A2, “Cephalosporin derivatives and process for their preparation” (Kaken Pharmaceutical Co., Ltd., priority 1983, dated 1984)

Experiments:
Assay in all cases: Minimum inhibitory concentration (MIC)
Format in all cases: cell-based
[1] = system: Klebsiella pneumoniae No. 42; details: Klebsiella pneumoniae No. 42; bacterial suspension 10^6 cells/ml; sodium salts tested; read-out: Minimum inhibitory concentration
Source text: (§1) The cephalosporin derivatives of the present invention are novel substances, and the antimicrobial activities of their sodium salts are shown by the minimum inhibitory concentrations (MIC, µg/ml) in Table 1, as compared with a typical known cephalosporin compound.

[2] = system: Escherichia coli NIHJ JC-2; details: NIHJJC2; Escherichia coli NIHJ JC-2; bacterial suspension 10^6 cells/ml; sodium salts tested; read-out: Minimum inhibitory concentration
Source text: as §1

[3] = system: Pseudomonas aeruginosa E-2; details: E2; Pseudomonas aeruginosa E-2; bacterial suspension 10^6 cells/ml; sodium salts tested; read-out: Minimum inhibitory concentration
Source text: as §1

[4] = system: Pseudomonas aeruginosa K-13; details: K13; Pseudomonas aeruginosa K-13; bacterial suspension 10^6 cells/ml; sodium salts tested; read-out: Minimum inhibitory concentration
Source text: as §1

[5] = system: Serratia marcescens No. 16-2; details: NO.162; Serratia marcescens No. 16-2; bacterial suspension 10^6 cells/ml; sodium salts tested; read-out: Minimum inhibitory concentration
Source text: as §1

[6] = system: Staphylococcus aureus 209 P JC-1; details: 209PJC1; Staphylococcus aureus 209 P JC-1; bacterial suspension 10^6 cells/ml; sodium salts tested; read-out: Minimum inhibitory concentration
Source text: as §1

Proteus vulgaris GN-76 = details: GN76; Proteus vulgaris GN-76; bacterial suspension 10^6 cells/ml; sodium salts tested; read-out: Minimum inhibitory concentration
Source text: as §1

[7] = system: Pseudomonas aeruginosa Y-1; details: Y1; Pseudomonas aeruginosa Y-1; bacterial suspension 10^6 cells/ml; sodium salts tested; read-out: Minimum inhibitory concentration
Source text: as §1

Structure (SMILES)	MIC [1] [µg/mL]	MIC [2] [µg/mL]	MIC [3] [µg/mL]	MIC [4] [µg/mL]	MIC [5] [µg/mL]	MIC [6] [µg/mL]	MIC (Proteus vulgaris GN-76) [µg/mL]	MIC [7] [µg/mL]
CC(=O)OCC1=C(C(=O)O)N2C(=O)[C@@H](NC(=O)C(NC(=O)c3ccc(OC(C)=O)cc3)c3csc(N)n3)[C@H]2SC1 (mixture of isomers) [Example 17, 7β-[DL-2-(4-acetoxybenzoylamino)-2-(2-aminothiazol-4-yl)acetamido]cephalosporic acid]	3.12	0.78	100	100	> 200	0.2	6.25	200
CC(=O)OCC1=C(C(=O)O)N2C(=O)[C@@H](NC(=O)C(NC(=O)c3cccc(O)c3)c3csc(N)n3)[C@H]2SC1 (mixture of isomers) [Example 23, 73-[DL-2-(3-hydroxybenzoylamino)-2-(2-aminothiazol-4-yl)acetamidolcephalosporic acid]	12.5	6.25	> 200	> 200	> 200	0.39	25	> 200
CO[C@@]1(NC(=O)C(NC(=O)c2ccc(OC(C)=O)c(OC(C)=O)c2)c2csc(N)n2)C(=O)N2C(C(=O)O)=C(COC(C)=O)CS[C@@H]21 (mixture of isomers) [Example 6, 7α-methoxy-7β-[DL-2-(3,4-diacetoxy-benzoylamino)-2-(2-aminothiazol-4-yl)acetamido]-cephalosporic acid]	0.39	3.12	0.78	1.56	6.25	1.56	12.5	0.78
CO[C@@]1(NC(=O)C(NC(=O)c2cc(OC(C)=O)c(OC(C)=O)c(OC(C)=O)c2)c2csc(N)n2)C(=O)N2C(C(=O)O)=C(COC(C)=O)CS[C@@H]21 (mixture of isomers) [Example 7, 7α-methoxy-7β-[DL-2-(3,4,5-triacetoxy-benzoylamino)-2-(2-aminothiazol-4-yl)acetamido]-cephalosporic acid]	1.56	12.5	0.78	1.56	50	6.25	12.5	0.78
CC(=O)OCC1=C(C(=O)O)N2C(=O)[C@@H](NC(=O)C(NC(=O)c3ccccc3O)c3csc(N)n3)[C@H]2SC1 (mixture of isomers) [Example 22, 7β-[DL-2-(2-hydroxybenzoylamino)-2-(2-aminothiazol-4-yl)acetamido]cephalosporic acid]	3.12	3.12	50	25	> 200	0.39	6.25	100
CC(=O)Oc1ccc(C(=O)NC(C(=O)N[C@@H]2C(=O)N3C(C(=O)O)=C(CSc4nnnn4C)CS[C@H]23)c2csc(N)n2)cc1OC(C)=O (mixture of isomers) [Example 1, 7β-[DL-2-(3,4-diacetoxybenzoylamino)-2-(2-aminothiazol-4-yl)acetamido]-3-(1-methyl-1H-tetrazol-5-yl-thiomethyl)-3-cephem-4-carboxylic acid]	0.1	0.2	0.2	0.2	6.25	0.78	0.39	0.05
CCOC(=O)Oc1ccc(C(=O)NC(C(=O)N[C@]2(OC)C(=O)N3C(C(=O)O)=C(COC(C)=O)CS[C@@H]32)c2csc(N)n2)cc1OC(=O)OCC (mixture of isomers) [Example 13, 7α -methoxy-7β-[DL-2-(3,4-diethoxy-carbonyloxybenzoylamino)-2-(2-aminothiazol-4-yl)-acetamido]cephalosporic acid]	0.39	12.5	0.78	1.56	3.12	1.56	6.25	0.78
CC(=O)OCC1=C(C(=O)O)N2C(=O)[C@@H](NC(=O)C(NC(=O)c3ccc(O)cc3)c3csc(N)n3)[C@H]2SC1 (mixture of isomers) [Example 24, 7β-[DL-2-(4-hydroxybenzoylamino)-2-(2-aminothiazol-4-yl)acetamido]cephalosporic acid]	6.25	3.12	25	25	> 200	0.39	25	50
CC(=O)OCC1=C(C(=O)O)N2C(=O)[C@@H](NC(=O)C(NC(=O)c3cc(O)c(O)c(O)c3)c3csc(N)n3)[C@H]2SC1 (mixture of isomers) [Example 25, 7β-[DL-2-(3,4,5-trihydroxy-benzoylamino)-2-(2-aminothiazol-4-yl)acetamido]-cephalosporic acid]	0.1	0.2	0.2	0.39	> 100	0.2	1.56	0.1
CC(=O)OCC1=C(C(=O)O)N2C(=O)[C@@H](NC(=O)C(NC(=O)c3cc(OC(C)=O)c(OC(C)=O)c(OC(C)=O)c3)c3csc(N)n3)[C@H]2SC1 (mixture of isomers) [Example 18, 7β-[DL-2-(3,4,5-triacetoxybenzoylamino)-2-(2-aminothiazol-4-yl)acetamido]cephalosporic acid]	0.1	0.39	0.2	0.78	3.12	1.56	0.78	0.78
CC(=O)OCC1=C(C(=O)O)N2C(=O)[C@@H](NC(=O)C(NC(=O)c3cccc(O)c3O)c3csc(N)n3)[C@H]2SC1 (mixture of isomers) [Example 21, 7β-[DL-2-(2,3-dihydroxybenzoylamino)-2-(2-aminothiazol-4-yl)acetamido]cephalosporic acid]	0.39	1.56	0.39	0.78	> 200	3.12	1.56	3.12
CO[C@@]1(NC(=O)C(NC(=O)c2ccc(O)c(O)c2)c2csc(N)n2)C(=O)N2C(C(=O)O)=C(CSc3nnnn3C)CS[C@@H]21 (mixture of isomers) [Example 12, 7α-methoxy-7β-[DL-2-(3,4-dihydroxy-benzoylamino)-2-(2-aminothiazol-4-yl)acetamido]-3-(l-methyl-lH-tetrazol-5-yl-thiomethyl)-3-cephem-4-carboxylic acid]	0.1	6.25	0.2	0.39	0.78	1.56	1.56	0.2
CO[C@@]1(NC(=O)C(NC(=O)c2ccc(OC(C)=O)c(OC(C)=O)c2)c2csc(N)n2)C(=O)N2C(C(=O)O)=C(CSc3nnnn3C)CS[C@@H]21 (mixture of isomers) [Example 10, 7α-methoxy-7β-[DL-2-(3,4-diacetoxy-benzoylamino)-2-(2-aminothiazol-4-yl)acetamidol-3-(1-methyl-lH-tetrazol-5-yl-thiomethyl)-3-cephem-4-carboxylic acid]	0.2	6.25	0.2	0.2	3.12	0.78	1.56	0.2
CO[C@@]1(NC(=O)C(NC(=O)c2cccc(OC(C)=O)c2OC(C)=O)c2csc(N)n2)C(=O)N2C(C(=O)O)=C(COC(C)=O)CS[C@@H]21 (mixture of isomers) [Example 8, 7α-methoxy-7β-(DL-2-(2,3-diacetoxy-benzoylamino)-2-(2-aminothiazol-4-yl)acetamido]-cephalosporic acid]	0.78	25	1.56	6.25	3.12	6.25	3.12	3.12
CC(=O)OCC1=C(C(=O)O)N2C(=O)[C@@H](NC(=O)C(NC(=O)c3cccc(OC(C)=O)c3)c3csc(N)n3)[C@H]2SC1 (mixture of isomers) [Example 16, 7β-[DL-2-(3-acetoxybenzoylamino)-2-(2-aminothiazol-4-yl)acetamidolcephalosporic acid]	3.12	1.56	200	200	> 200	0.39	6.25	> 200
CC(=O)Oc1cccc(C(=O)NC(C(=O)N[C@@H]2C(=O)N3C(C(=O)O)=C(CSc4nnnn4C)CS[C@H]23)c2csc(N)n2)c1OC(C)=O (mixture of isomers) [Example 4, 7β-[DL-2-(2,3-diacetoxybenzoylamino)-2-(2-aminothiazol-4-yl)acetamidol-3-(l-methyl-lH-tetrazol-5-yl-thiomethyl)-3-cephem-4-carboxylic acid]	1.56	3.12	1.56	0.39	200	1.56	3.12	0.78
